Results: PMC4377999, “Kalkitoxin Inhibits Angiogenesis, Disrupts Cellular Hypoxic Signaling, and Blocks Mitochondrial Electron Transport in Tumor Cells” (Marine Drugs, 2015)

Molecular target: T1, mitochondrial electron transport chain complex I (NADH-ubiquinone oxidoreductase) (Homo sapiens, UniProt O75251+O75306+P03886)
T1 construct: gene NDUFS2; native multi-subunit complex in digitonin-permeabilized T47D cells
Experiment: oxygen consumption (Clark-type electrode) in permeabilized T47D cells with malate/pyruvate, succinate bypass; […]
Assay type: cell-based

C=C[C@@H]1CSC(C[C@@H](C)[C@@H](C)C[C@H](C)CCN(C)C(=O)[C@H](C)CC)=N1 [kalkitoxin]
oxygen consumption (Clark-type electrode) in permeabilized T47D cells with malat: kalkitoxin potently suppresses mitochondrial respiration in tumor cells by selectively inhibiting ETC complex I
